Experiments:
[1] = species on record: Mus musculus; test: Antinociceptive activity in mice was determined using PBQ assay.; type: functional
[2] = species on record: Mus musculus; test: Antinociceptive activity in mice was determined using Tail flick method.; type: functional
[3] = target: Kappa-type opioid receptor (Homo sapiens, UniProt P41145); test: Binding affinity for Opioid receptor kappa 1 was determined.
[4] = target: Delta-type opioid receptor (Homo sapiens, UniProt P41143); test: Binding affinity for Opioid receptor delta 1 was determined
Delta-type opioid receptor, sequence (P41143 whole entry): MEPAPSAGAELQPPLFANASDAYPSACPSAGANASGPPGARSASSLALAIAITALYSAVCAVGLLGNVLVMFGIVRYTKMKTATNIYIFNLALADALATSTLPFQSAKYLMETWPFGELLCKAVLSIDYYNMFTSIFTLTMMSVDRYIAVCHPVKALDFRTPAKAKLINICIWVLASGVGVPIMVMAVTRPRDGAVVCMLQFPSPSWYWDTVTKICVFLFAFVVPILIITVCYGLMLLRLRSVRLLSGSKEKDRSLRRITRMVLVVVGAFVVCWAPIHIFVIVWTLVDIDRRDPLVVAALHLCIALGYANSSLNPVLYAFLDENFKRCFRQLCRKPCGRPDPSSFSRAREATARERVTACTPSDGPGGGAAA

[5] = target: Mu-type opioid receptor (Homo sapiens, UniProt P35372); test: Binding affinity for Opioid receptor mu 1
Mu-type opioid receptor, sequence (P35372 whole entry): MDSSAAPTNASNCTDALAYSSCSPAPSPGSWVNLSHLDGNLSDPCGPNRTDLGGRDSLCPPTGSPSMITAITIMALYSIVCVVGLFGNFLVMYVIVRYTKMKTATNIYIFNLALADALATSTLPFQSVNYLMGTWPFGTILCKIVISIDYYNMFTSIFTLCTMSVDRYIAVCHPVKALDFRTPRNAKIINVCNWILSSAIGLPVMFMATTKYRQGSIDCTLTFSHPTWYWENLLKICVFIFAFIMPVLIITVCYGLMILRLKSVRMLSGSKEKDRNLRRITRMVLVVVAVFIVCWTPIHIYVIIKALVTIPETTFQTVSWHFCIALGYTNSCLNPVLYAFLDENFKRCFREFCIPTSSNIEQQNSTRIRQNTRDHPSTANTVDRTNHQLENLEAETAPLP

Kappa-type opioid receptor, sequence (P41145 whole entry): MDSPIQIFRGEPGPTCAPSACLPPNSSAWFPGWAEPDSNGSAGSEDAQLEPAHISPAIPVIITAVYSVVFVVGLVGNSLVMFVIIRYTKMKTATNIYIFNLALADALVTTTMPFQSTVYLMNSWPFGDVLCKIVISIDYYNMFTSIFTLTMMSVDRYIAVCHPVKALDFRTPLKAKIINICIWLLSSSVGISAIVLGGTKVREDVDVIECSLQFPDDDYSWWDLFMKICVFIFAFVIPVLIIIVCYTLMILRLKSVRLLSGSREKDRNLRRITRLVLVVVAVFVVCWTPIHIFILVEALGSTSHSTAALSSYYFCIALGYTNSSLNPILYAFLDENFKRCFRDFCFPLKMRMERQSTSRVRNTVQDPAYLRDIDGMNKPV

Row | Structure (SMILES) | ED50 [1] [µmol/kg] | ED50 [2] [µmol/kg] | Ki [3] [nM] | Ki [4] [nM] | Ki [5] [nM]
1 | CS[C@@H]1Cc2ccc(O)cc2C(C)(C)[C@@H]1N | 0.14 | 0.58 | 66 | 349 | –
2 | CC1(C)c2cc(O)ccc2C[C@@H](S)[C@H]1N | – | – | – | – | 163
3 | CO[C@@H]1Cc2ccc(O)cc2C(C)(C)[C@@H]1N | 1.1 | 16 | 184 | 5220 | 1.8
4 | CC1(C)c2cc(O)ccc2C[C@@H](O)[C@H]1N | – | – | – | – | 204
5 | CC1(C)c2cc(O)ccc2C[C@@H](S(C)(=O)=O)[C@H]1N | – | – | – | – | 1150
6 | CC[C@H]1Cc2ccc(O)cc2C(C)(C)[C@@H]1N | – | – | – | – | 135
7 | C[C@@]12CCCCS[C@@H](Cc3ccc(O)cc31)C2N (stereo partly specified) | 0.33 | – | 43.4 | 420 | 0.79
8 | CC[C@@H]1Cc2ccc(O)cc2C(C)(C)[C@@H]1N | 4.8 | 10.4 | 345 | 4510 | 21
9 | C[S+]([O-])[C@@H]1Cc2ccc(O)cc2C(C)(C)[C@@H]1N (stereo in doubt; 18A) | – | – | – | – | 1060
10 | C[S+]([O-])[C@@H]1Cc2ccc(O)cc2C(C)(C)[C@@H]1N (stereo in doubt; 18B) | – | – | – | – | 2000
11 | CN1CC[C@]23c4c5ccc(O)c4O[C@H]2[C@@H](O)C=C[C@H]3[C@H]1C5 [MORPHINE] | 1.6 | 1.2 | – | – | –

Source: ChEMBL document CHEMBL1134942, “Synthesis and structure--activity relationship of novel aminotetralin derivatives with high micro selective opioid affinity” (Bioorg Med Chem Lett, 2002)
